Measured values from patent US20170152258A9, “Substituted Pyridopyrazines as Syk Inhibitors” (HUTCHISON MEDIPHARMA LIMITED, priority 2012, published 2017).
pIC50: −log10 of the molar value.

What was measured:
Syk kinase = Syk kinase (Homo sapiens, UniProt P43405); test: SYK Enzymatic Assay (Z-LYTE Tyr 2 peptide); type: biochemical; conditions: 8 concentrations 1 μM down to 0.0003 μM
How it was run: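 Z-LYTE format using Tyr 2 peptide. After the 1 h room-temperature kinase reaction, development reagent was added for 1 h, then stop reagent. Fluorescence was read at 445 and 520 nm. Compounds were tested at 8 concentrations, 1 μM down to 0.0003 μM (1:3 dilutions).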

RBL-2H3 cells = test: IgE-induced Beta-hexosaminidase secretion in RBL-2H3 cells; type: cell-based; conditions: DNP-BSA stimulation
How it was run: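 RBL-2H3 cells sensitized overnight with 0.5 ug/ml SPE-7 IgE, washed, preincubated with compound 20 min at 37° C, then stimulated with DNP-BSA (150 ng/mL stock) for 45 min. Released β-hexosaminidase measured on supernatant with 1 mM 4-nitrophenyl N-acetyl-β-D-glucosaminide, pH 4.5, 1.5 hr at 37° C; absorbance 405 nm after carbonate quench.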

[1] = Rattus norvegicus, RBL-2H3, IgE-induced Beta-hexosaminidase secretion
[2] = IgE-induced Beta-hexosaminidase secretion

SMILES | pIC50 (Syk kinase) | pIC50 (RBL-2H3 cells; [1]) | pIC50 (RBL-2H3 cells; [2])
CS(=O)(=O)N1CCC(c2ccc(-c3cc4nccnc4c(OC[C@@H]4CNC(=O)C4)n3)cc2)CC1 [Compound 261, (S)-4-(((7-(4-(1-(methylsulfonyl)piperidin-4-yl)phenyl)pyrido[3,4-b]pyrazin-5-yl)oxy)methyl)pyrrolidin-2-one] | 7.28 | 6.38 | –
CNS(=O)(=O)N1CCOC(COc2nc(-c3ccc(C(C)(C)O)cc3)cc3nccnc23)C1 (stereo not drawn) [Compound 262] | 7.10 | 6.57 | –
CC(=O)N1CCO[C@H](COc2nc(-c3ccc(C(C)(C)O)cc3)cc3nccnc23)C1 [Compound 265] | 7.06 | 6.78 | –
CC(=O)N1CCO[C@H](COc2nc(-c3ccc(C(C)(C)CN)cc3)cc3nccnc23)C1 [Compound 267] | 6.32 | 5.90 | –
COC(C)(C)c1ccc(-c2cc3nccnc3c(OC[C@@H]3CN(C(C)=O)CCO3)n2)cc1 [Compound 269] | 7.04 | 7.06 | –
CCC(O)(CC)c1ccc(-c2cc3nccnc3c(OC[C@@H]3CN(C(C)=O)CCO3)n2)cc1 [Compound 270] | 6.75 | 6.73 | –
CC(C)(O)Cc1ccc(-c2cc3nccnc3c(OC[C@@H]3CN(S(C)(=O)=O)CCO3)n2)cc1 [Compound 273] | 7.07 | 6.75 | –
CCC(O)(CC)c1ccc(-c2cc3nccnc3c(OC[C@@H]3CN(C(N)=O)CCO3)n2)cc1 [Compound 281] | 7.19 | 6.18 | –
CC(C)(C)C(O)c1ccc(-c2cc3nccnc3c(OC[C@@H]3CN(S(C)(=O)=O)CCO3)n2)cc1 (stereo partly drawn) [Compound 284] | 7.01 | 6.71 | –
N#CC1(c2ccc(-c3cc4nccnc4c(OC[C@@H]4CN(C(N)=O)CCO4)n3)cc2)CCC1 [Compound 290] | 7.30 | 6.43 | 6.33
N#CC1(c2ccc(-c3cc4nccnc4c(OC[C@@H]4CN(S(N)(=O)=O)CCO4)n3)cc2)CC1 [Compound 293] | 7.30 | 6.62 | –
N#CC1(c2ccc(-c3cc4nccnc4c(OC[C@@H]4CN(S(N)(=O)=O)CCO4)n3)cc2)CCC1 [Compound 294] | 7.29 | 6.66 | 6.88
CC(=O)N1CCO[C@H](COc2nc(-c3ccc4c(c3)COC4(C)C)cc3nccnc23)C1 [Compound 297] | 7.24 | 7.06 | –
NS(=O)(=O)N1CCO[C@H](COc2nc(-c3ccc(C4(O)CCC4)cc3)cc3nccnc23)C1 [Compound 312] | 7.16 | 6.06 | –
CN1CCOC(COc2nc(-c3ccc(C4CCN(S(C)(=O)=O)CC4)cc3)cc3nccnc23)C1=O (stereo not drawn) [Compound 315] | 6.99 | 6.91 | –
CN1CCOC(COc2nc(-c3ccc(C(C)(C)O)cc3)cc3nccnc23)C1=O (stereo not drawn) [Compound 316] | 6.94 | 6.95 | –

Stronger by pIC50 (Syk kinase), values ahead:

pIC50 (Syk kinase) | pIC50 (RBL-2H3 cells; [1]) | pIC50 (RBL-2H3 cells; [2]) | SMILES
7.64 | 6.40 | – | CC(C)(O)c1ccc(-c2cc3nccnc3c(OC[C@@H]3CN(S(N)(=O)=O)CCO3)n2)cc1 [Compound 263]
7.42 | 6.47 | – | CNC(=O)N1CCO[C@H](COc2nc(-c3ccc(C(C)(C)O)cc3)cc3nccnc23)C1 [Compound 264]
7.36 | 5.96 | – | CC(C)(O)c1ccc(-c2cc3nccnc3c(OC[C@@H]3CN(C(N)=O)CCO3)n2)cc1 [Compound 266]
7.74 | 7.44 | – | COC(C)(C)c1ccc(-c2cc3nccnc3c(OC[C@@H]3CN(S(C)(=O)=O)CCO3)n2)cc1 [Compound 268]
7.40 | 7.23 | – | CS(=O)(=O)N1CCO[C@H](COc2nc(-c3ccc(C4(C#N)CC4)cc3)cc3nccnc23)C1 [Compound 274]
7.46 | 7.06 | – | CCC(O)(CC)c1ccc(-c2cc3nccnc3c(OC[C@@H]3CN(S(C)(=O)=O)CCO3)n2)cc1 [Compound 279]
7.59 | 7.04 | – | CS(=O)(=O)N1CCO[C@H](COc2nc(-c3ccc(C4(C#N)CCC4)cc3)cc3nccnc23)C1 [Compound 282]
7.36 | 6.61 | – | CCC(O)(CC)c1ccc(-c2cc3nccnc3c(OC[C@@H]3CN(S(N)(=O)=O)CCO3)n2)cc1 [Compound 283]
7.60 | 7.07 | 7.32 | CC(C)(CO)c1ccc(-c2cc3nccnc3c(OC[C@@H]3CN(S(C)(=O)=O)CCO3)n2)cc1 [Compound 288]
7.85 | 6.63 | – | COc1ccc(-c2cc3nccnc3c(OC[C@@H]3CN(S(N)(=O)=O)CCO3)n2)cc1OC [Compound 292, (S)-2-(((7-(3,4-dimethoxyphenyl)pyrido[3,4-b]pyrazin-5-yl)oxy)methyl)morpholine-4-sulfonamide]
7.55 | 6.72 | – | CC1(C)OCc2cc(-c3cc4nccnc4c(OC[C@@H]4CN(C(N)=O)CCO4)n3)ccc21 [Compound 298]
7.85 | 7.33 | – | CC1(C)OCc2cc(-c3cc4nccnc4c(OC[C@@H]4CN(S(C)(=O)=O)CCO4)n3)ccc21 [Compound 299]
7.62 | 6.97 | – | CC1(C)OCCc2cc(-c3cc4nccnc4c(OC[C@@H]4CN(C(N)=O)CCO4)n3)ccc21 [Compound 301]
8.05 | 7.52 | – | CC1(C)OCCc2cc(-c3cc4nccnc4c(OC[C@@H]4CN(S(C)(=O)=O)CCO4)n3)ccc21 [Compound 302]
7.46 | 7.01 | – | CS(=O)(=O)N1CCO[C@H](COc2nc(-c3ccc(C4(O)CCC4)cc3)cc3nccnc23)C1 [Compound 308]
7.46 | 6.21 | – | NC(=O)N1CCO[C@H](COc2nc(-c3ccc(C4(O)CCC4)cc3)cc3nccnc23)C1 [Compound 311]
7.37 | 6.93 | – | CS(=O)(=O)N1CCO[C@H](COc2nc(-c3ccc(C4(O)CCOCC4)cc3)cc3nccnc23)C1 [Compound 314]
7.48 | 7.03 | – | CC1(c2ccc(-c3cc4nccnc4c(OC[C@@H]4CN(S(C)(=O)=O)CCO4)n3)cc2)COC1 [Compound 317]
7.77 | 6.76 | – | CC(C)(C(=O)O)c1ccc(-c2cc3nccnc3c(OC[C@@H]3CN(S(C)(=O)=O)CCO3)n2)cc1 [Compound 318]
7.85 | 6.90 | – | CC(=O)N1CC(C)(c2ccc(-c3cc4nccnc4c(OC[C@@H]4CN(S(C)(=O)=O)CCO4)n3)cc2)C1 [Compound 321]
